Counter-ions that a name gives are not always drawn.
Tests used:
5-HT2A [1] = biological target: T1, 5-HT2A (Rattus norvegicus, UniProt P14842); assay: 5-HT2 Functional Assay: [Ca2+]i Mobilization (FLIPR); type: cell-based; design: endogenous in cells; host or cells: A7r5 rat vascular smooth muscle cells; settings: for EC50: [Ca2+]i mobilization, A7r5 rat vascular smooth muscle cells; for Emax: percentage of a maximum 5-HT-induced response, A7r5 cells
Description: 5-HT2 Functional Assay: [Ca^2+]i Mobilization
The receptor-mediated mobilization on intracellular calcium ([Ca^2+]i) was studied using the Fluorescence Imaging Plate Reader (FLIPR) instrument. Rat vascular smooth muscle cells, A7r5, were grown in a normal media of DMEM/10% FBS and 10 μg/mL gentamycin. Confluent cell monolayers were trypsinized, pelleted, and re-suspended in normal media. Cells were seeded in a 50 μL volume at a density of 20,000 cells/well in a black wall, 96-well tissue culture plate and grown for 2 days.
On the day of the experiment, one vial of FLIPR Calcium Assay Kit dye was re-suspended in 50 mL of a FLIPR buffer consisting of Hank's Balanced Salt Solution (HBSS), 20 mM HEPES, and 2.5 mM probenecid, pH 7.4. Cells were loaded with the calcium-sensitive dye by addition of an equal volume ([…]) to each well of the 96-well plate and incubated with dye for 1 h at 23° C.
Typically, test compounds were stored at 25 μM in 50% DMSO/50% Ethanol solvent. Compounds were diluted 1:50 in 20% DMSO/20% Ethanol. For “hit” screening, compounds were further diluted 1:10 in FLIPR buffer and tested at a final concentration of 10 μM. For dose-response experiments, compounds were diluted 1:50 in FLIPR buffer and serially diluted 1:10 to give a 5- or 8-point dose-response curve.
The compound plate and cell plate were placed in the FLIPR instrument. At the beginning of an experimental run, a signal test was performed to check the basal fluorescence signal from the dye-loaded cells and the uniformity of the signal across the plate. The basal fluorescence was adjusted between 8000-12000 counts by modifying the exposure time, the camera F-stop, or the laser power. Instrument settings for a typical assay were the following: laser power 0.3-0.6 W, camera F-stop F/2, and exposure time 0.4 sec. An aliquot (25 μL) of the test compound was added to the existing 100 μL dye-loaded cells at a dispensing speed of 50 μL/sec. Fluorescence data were collected in real-time at 1.0 sec intervals for the first 60 secs and at 6.0 sec intervals for an additional 120 secs. Responses were measured as peak fluorescence intensity minus basal and where appropriate were expressed as a percentage of a maximum 5-HT-induced response [Emax %]. When the compounds were tested as antagonists against 10 μM 5-HT, they were incubated with the cells for 15 minutes prior to the addition of 5-HT.

5-HT2A [2] = biological target: T1, 5-HT2A; assay: 5-HT2 Receptor Binding Assay ([125I]DOI competition); settings: [125I]DOI binding, post mortem rat or human cerebral cortex homogenates
Description: 5-HT2 Receptor Binding Assay
Aliquots of post mortem rat or human cerebral cortex homogenates (400 μL) dispersed in 50 mM Tris HCl buffer (pH 7.4) are incubated with [^125I]DOI (80 pM final) in the absence or presence of methiothepin (10 μM final) to define total and non-specific binding, respectively, in a total volume of 0.5 mL. The assay mixture is incubated for 1 hour at 23° C. in polypropylene tubes and the assays terminated by rapid vacuum filtration over Whatman GF/13 glass fiber filters previously soaked in 0.3% polyethyleneimine using ice-cold buffer. Test compounds (at different concentrations) are substituted for methiothepin. Filter-bound radioactivity is determined by scintillation spectrometry on a beta counter. The data are analyzed using a non-linear, iterative curve-fitting computer program [Trends Pharmacol. Sci., 16, 413 (1995)] to determine the compound affinity parameter. The concentration of the compound needed to inhibit the [^125I]DOI binding by 50% of the maximum is termed the […].

T1 sequence (P14842 whole entry): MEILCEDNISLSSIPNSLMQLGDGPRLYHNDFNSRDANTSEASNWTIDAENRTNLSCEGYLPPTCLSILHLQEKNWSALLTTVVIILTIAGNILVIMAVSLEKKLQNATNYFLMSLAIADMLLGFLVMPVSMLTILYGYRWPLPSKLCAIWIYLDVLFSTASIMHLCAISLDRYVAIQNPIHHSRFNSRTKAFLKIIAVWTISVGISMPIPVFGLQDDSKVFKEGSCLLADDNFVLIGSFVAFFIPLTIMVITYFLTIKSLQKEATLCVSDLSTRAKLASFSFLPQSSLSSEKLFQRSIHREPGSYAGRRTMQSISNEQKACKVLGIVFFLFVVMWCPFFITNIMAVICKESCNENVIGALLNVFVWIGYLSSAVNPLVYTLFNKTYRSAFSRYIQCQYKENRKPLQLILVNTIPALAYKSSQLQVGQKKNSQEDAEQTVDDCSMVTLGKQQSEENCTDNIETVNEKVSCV

Question: With `CCOC(=O)c1ccc2cnn(C[C@H](C)N)c2c1` [Example 1, 1-((S)-2-Aminopropyl)-1H-indazole-6-carboxylic acid ethyl ester] as the compound, how does the EC50 (5-HT2A [1]) read?
Answer: Its EC50 is 837 nM.

Question: And the Emax (5-HT2A [1])?
Answer: Its Emax is 86%.

Question: What about the IC50 (5-HT2A [2]) of the same compound?
Answer: The IC50 was 10 nM.

Question: For `CCOC(=O)c1ccc2cnn(C[C@H](C)N)c2c1` (as salt: fumaric acid salt) [Example 1, 1-((S)-2-Aminopropyl)-1H-indazole-6-carboxylic acid ethyl ester], which melting point is on record?
Answer: The melting point was 150 to 152 °C.

Question: For `C[C@H](N)Cn1ncc2ccc(C(N)=O)cc21` [Example 2, 1-((S)-2-Aminopropyl)-1H-indazole-6-carboxylic acid amide], which melting point is on record?
Answer: Its melting point is 170 to 172 °C.

Question: What about the EC50 (5-HT2A [1]) of the same compound?
Answer: Its EC50 is 465 nM.

Question: What about the Emax (5-HT2A [1]) of the same compound?
Answer: The Emax was 90%.

Question: What about the IC50 (5-HT2A [2]) of the same compound?
Answer: Its IC50 is 5.9 nM.

From patent publication US7439262B1, “Substituted 1-alkylamino-1-H-indazoles for the treatment of glaucoma” (Alcon, Inc., priority 2003, dated 2008)
